Results: patent publication US9029451B2, “Waterborne coating compositions that include 2,2,4-trimethyl-3-oxopentanoate esters as reactive coalescents” (Eastman Chemical Company, priority 2010, dated 2015)
Read-outs that look alike come from different tables or passages of the source.

What was measured:
[1] = Density, ASTM D 1475-98; format: physicochemical
[2] = Water miscibility, % organic in water method (gravimetric); format: physicochemical; conditions: saturation point
Method: (§1) Water miscibility was measured by the following methods:
% Organic in Water Method:
The novel coalescent was added drop wise to 25 mL Milli-Q water and the mixture stirred at 1000 rpm for 10 minutes. If the coalescent dissolved, an additional drop or drops were added until traces of the organic solvent remained after the mixture had been stirred for 20 minutes. The percent organic solvent at the saturation point was determined gravimetrically.

[3] = Water miscibility, % water in solvent method (Karl Fischer); format: physicochemical; conditions: stirred approx. 48 hours
Method: as §1
% Water in Solvent Method:
Approximately 5-10 mL of the novel coalescent was slowly added to 10-15 mL Milli-Q water in an 8-dram vial. The mixture was slowly stirred for approximately 48 hours at 100-150 rpm. The organic layer was analyzed in triplicate for percent water by Karl Fischer methodology.

[4] = Hydrolytic stability in latex at 120° F., pH and Brookfield viscosity; format: physicochemical
Method: Approximately 100 grams of either Rhoplex AC 2508 (Rohm & Haas acrylic polymer emulsion) or Rhoplex SG-10M (Rohm & Haas acrylic polymer emulsion) was weighed out into a 4 ounce jar and 10 phr (parts per hundred resin) of the coalescing aid was added (based on percent solids of the emulsion by weight). The sample was placed on lab rollers for 24 hours before the initial pH and viscosity was taken. The viscosity was measured by a Brookfield viscometer in centipoises. The sample was then placed into a lab oven at 120° F. The pH and viscosity was checked weekly for four weeks (Tables 3 & 4). Any change in the appearance of the sample such as gel particles or phase separation was recorded weekly also.

[5] = MFFT testing, coalescing efficiency
Method: The MFFT samples were prepared by weighing out 20 grams (+/−0.01 g) of emulsion into 50 ml beakers. The beakers of emulsion were placed on magnetic stirrers and the coalescing aid added dropwise by pipet. The weight of the drops were determined by adding 40 drops of the coalescing aid to a tared weighing dish, then the weight per drop was calculated by taking an average of the total weight (total weight divided by 40 drops). The coalescing aid was added to the emulsion based on solids by weight. The MFFT samples were allowed to stir for approximately 15 minutes, transferred to 8 dram vials and placed onto lab rollers and allowed to equilibrate for at least 24 hours. The samples were then drawn down on the MFFT bar, which is typically set on range #2 (0° to 18° C.), and the films allowed to dry. The areas in which the films have stopped cracking are visually determined and the MFFT value is read from the scale on the instrument and converted to degrees Fahrenheit. Linear Regression was used to calculate the amount of coalescing aid required to lower the films MFFT to 40° F. In Table #5, the phr40 values (parts per hundred resin based on solids by weight) are the amount of coalescing aid required to reduce the MFFT to 40° F. A lower number indicates the coalescent is more efficient at reducing the MFFT of the film.

[6] = Boiling point of coalescent; format: physicochemical
Method: The novel compounds were evaluated for their coalescing properties and compared to 2,2,4-trimethylpentane-1,3-diol monoisobutyrate (Texanol) and Optifilm Enhancer 400 (OE 400), two coalescents that are widely used in industry (Table 2).

[7] = % non-volatile, 110° C. for 1 hour (ASTM D2369); format: physicochemical
Method: 2,2,4-trimethyl-3-oxopentanoate esters useful as reactive coalescents according to the invention include those having a weight percent volatile content of less than 50%, as measured according to ASTM Method D2369. This test may be conducted generally by heating the sample in a forced air oven at 110° C. for 60 minutes. The weight loss after the test is deemed to result from a loss of volatiles originally present in the sample; the percent volatile present in the original sample may then be calculated. Although the cited test can be conducted on coating compositions containing other components such as latex polymers, the values cited herein may be obtained from a sample of the coalescent itself. Thus, the weight percent volatile of a coalescent may be used herein as a yardstick to measure the amount of VOC the coalescent would contribute to the VOC of a coating composition.

[8] = Rhoplex AC 2508, 10 phr coalescent, Initial
[9] = Rhoplex AC 2508, 10 phr, 120° F., 1 week
[10] = Rhoplex AC 2508, 10 phr, 120° F., 2 weeks
[11] = Rhoplex AC 2508, 10 phr, 120° F., 3 weeks
[12] = Rhoplex AC 2508, 10 phr, 120° F., 4 weeks
[13] = Rhoplex SG-10M, 10 phr coalescent, Initial
[14] = Rhoplex SG-10M, 10 phr, 120° F., 1 week
[15] = Rhoplex SG-10M, 10 phr, 120° F., 2 weeks
[16] = Rhoplex SG-10M, 10 phr, 120° F., 3 weeks
[17] = Rhoplex SG-10M, 10 phr, 120° F., 4 weeks
[18] = latex Acronal 296D, linear regression
[19] = latex Rhoplex HG-74P, linear regression
[20] = latex Rhoplex SG-10M, linear regression
[21] = latex Ucar 379G, linear regression
[22] = latex Ucar 626, linear regression
[23] = Rhoplex AC 2508, compared with industry standards
[24] = Rhoplex SG-10M, compared with industry standards

Compound	Density (lbs/gal) [1] [lbs/gal]	Water Miscibility % solvent in water layer [2] [%]	Water Miscibility % water in solvent layer [3] [%]	Viscosity (cps) [4, 8] [cps]	pH [4, 8]	Viscosity (cps) [4, 9] [cps]	pH [4, 9]	Viscosity (cps) [4, 10] [cps]	pH [4, 10]	Viscosity (cps) [4, 11] [cps]	pH [4, 11]	Viscosity (cps) [4, 12] [cps]	pH [4, 12]	% non-volatile @ 110° C. for 1 hour [7] [%]	Boiling Point (° C. @ 760 torr) [6] [°C]	phr of Coalescent required to lower MFFT to 40° F. [5, 18] [phr]	phr of Coalescent required to lower MFFT to 40° F. [5, 19] [phr]	phr of Coalescent required to lower MFFT to 40° F. [5, 20] [phr]	phr of Coalescent required to lower MFFT to 40° F. [5, 21] [phr]	phr of Coalescent required to lower MFFT to 40° F. [5, 22] [phr]	further results
2,2,4-trimethylpentane-1,3-diol monoisobutyrate [Texanol, reference compound]	7.92	0.1	3.0	905	8.2	685	7.9	665	8.0	631	7.8	638	7.9	0.0	–	4.7	8.3	4.6	0.1	6.2	Viscosity (cps) [4, 13]: 544 cps; pH [4, 13]: 8.7; Viscosity (cps) [4, 14]: 554 cps; pH [4, 14]: 8.5; Viscosity (cps) [4, 15]: 484 cps; pH [4, 15]: 8.8; Viscosity (cps) [4, 16]: 474 cps; pH [4, 16]: 8.6; Viscosity (cps) [4, 17]: 471 cps; pH [4, 17]: 8.3; Boiling Point (° C. @ 760 torr) ([6]; @ 760 torr): 255.0 °C
CC(C)C(=O)C(C)(C)C(=O)OCCO [Example 1, 2-Hydroxyethyl 2,2,4-trimethyl-3-oxopentanoate]	8.75	5.0	7.6	1430	8.3	1360	7.7	1150	7.7	1060	7.6	1070	7.4	10.6	254.8	4.2	8.2	4.7	1.5	6.5	–
CC(C)C(=O)C(C)(C)C(=O)OCC(C)(C)CO [Example 2, 3-Hydroxy-2,2-dimethylpropyl 2,2,4-trimethyl-3-oxopentanoate]	8.34	0.09	4.0	1510	8.5	1260	8.4	1230	8.4	1220	8.3	1130	8.3	47.9	291.2	5.9	8.8	5.6	1.6	6.4	hydrolytic stability, in words [4, 23]: better than the industry standards
CCCCOCCOCCOC(=O)C(C)(C)C(=O)C(C)C [Example 5, 2-(2-Butoxyethoxy)ethyl 2,2,4-trimethyl-3-oxopentanoate]	8.02	0.02	0.40	–	–	–	–	–	–	–	–	–	–	64.0	272.1	4.2	–	4.6	0.9	–	Viscosity (cps) [4, 13]: 548 cps; pH [4, 13]: 8.6; Viscosity (cps) [4, 14]: 631 cps; pH [4, 14]: 8.3; Viscosity (cps) [4, 15]: 461 cps; pH [4, 15]: 8.7; Viscosity (cps) [4, 16]: 458 cps; pH [4, 16]: 8.6; Viscosity (cps) [4, 17]: 511 cps; pH [4, 17]: 8.2; hydrolytic stability, in words [4, 24]: better than the industry standards

Now from value to compound, other results behind:

Density (lbs/gal) [1] [lbs/gal]	Water Miscibility % solvent in water layer [2] [%]	Water Miscibility % water in solvent layer [3] [%]	Viscosity (cps) [4, 8] [cps]	pH [4, 8]	Viscosity (cps) [4, 9] [cps]	pH [4, 9]	Viscosity (cps) [4, 10] [cps]	pH [4, 10]	Viscosity (cps) [4, 11] [cps]	pH [4, 11]	Viscosity (cps) [4, 12] [cps]	pH [4, 12]	% non-volatile @ 110° C. for 1 hour [7] [%]	Boiling Point (° C. @ 760 torr) [6] [°C]	Compound	phr of Coalescent required to lower MFFT to 40° F. [5, 18] [phr]	phr of Coalescent required to lower MFFT to 40° F. [5, 19] [phr]	phr of Coalescent required to lower MFFT to 40° F. [5, 20] [phr]	phr of Coalescent required to lower MFFT to 40° F. [5, 21] [phr]	phr of Coalescent required to lower MFFT to 40° F. [5, 22] [phr]	further results
8.13	0.07	2.1	1430	8.5	1300	8.4	1290	8.4	1250	8.4	1130	8.3	63.8	287.7	CC(C)C(=O)C(C)(C)C(=O)OCC(C)(C)C(O)C(C)C (centres unmarked) [Example 3, 3-Hydroxy-2,2,4-trimethylpentyl 2,2,4-trimethyl-3-oxopentanoate]	6.0	9.7	5.6	1.3	8.2	hydrolytic stability, in words [4, 23]: better than the industry standards
8.82	0.09	0.01	1380	8.4	1200	8.3	1210	8.2	1150	8.3	1100	8.2	99.0	320.0	CC(C)C(=O)C(C)(C)C(=O)OCCOCCOCCOC(=O)C(C)(C)C(=O)C(C)C [Example 4]	5.8	9.1	6.7	1.3	7.0	hydrolytic stability, in words [4, 23]: better than the industry standards; volatility, in words ([7]; compared with Texanol): almost completely nonvolatile
7.80	0.00	0.03	–	–	–	–	–	–	–	–	–	–	58.7	281.6	CCCCC(CC)COCCOC(=O)C(C)(C)C(=O)C(C)C (centres unmarked) [Example 6, 2-(2-Ethylhexyloxy)ethyl 2,2,4-trimethyl-3-oxopentanoate]	5.0	–	4.0	1.3	–	Viscosity (cps) [4, 13]: 474 cps; pH [4, 13]: 8.6; Viscosity (cps) [4, 14]: 585 cps; pH [4, 14]: 8.4; Viscosity (cps) [4, 15]: 484 cps; pH [4, 15]: 8.8; Viscosity (cps) [4, 16]: 347 cps; pH [4, 16]: 8.8; Viscosity (cps) [4, 17]: 461 cps; pH [4, 17]: 8.4; hydrolytic stability, in words [4, 24]: better than the industry standards
